Assay results reported in ChEMBL document CHEMBL2074379, “Possible involvement of organic anion transporter 2 on the interaction of theophylline with erythromycin in the human liver” (Drug Metab Dispos, 2005).

Legend:
Format in all cases: functional, cell-based
Details in all cases: oocyte
[1] = target: T1, Solute carrier family 22 member 7 (Homo sapiens, UniProt Q9Y694); assay: TP_TRANSPORTER: uptake in OAT2-expressing oocytes
T1 sequence (Q9Y694 whole entry): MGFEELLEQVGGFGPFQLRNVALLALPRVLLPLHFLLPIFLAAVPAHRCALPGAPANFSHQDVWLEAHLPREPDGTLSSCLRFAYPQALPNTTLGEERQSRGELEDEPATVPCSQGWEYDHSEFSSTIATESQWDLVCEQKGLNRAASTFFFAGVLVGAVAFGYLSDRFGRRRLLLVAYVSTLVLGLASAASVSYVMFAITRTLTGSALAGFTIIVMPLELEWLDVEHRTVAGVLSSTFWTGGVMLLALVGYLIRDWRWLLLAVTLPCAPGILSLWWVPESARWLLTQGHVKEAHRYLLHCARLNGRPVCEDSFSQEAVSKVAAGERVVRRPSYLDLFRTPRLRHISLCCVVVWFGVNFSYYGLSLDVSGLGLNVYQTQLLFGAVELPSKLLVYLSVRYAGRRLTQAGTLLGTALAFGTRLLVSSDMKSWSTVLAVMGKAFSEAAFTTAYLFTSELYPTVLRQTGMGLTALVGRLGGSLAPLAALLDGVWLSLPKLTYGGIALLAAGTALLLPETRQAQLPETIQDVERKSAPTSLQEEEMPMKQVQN

[2] = target: T1, Solute carrier family 22 member 7; assay: TP_TRANSPORTER: inhibition of erythromycin uptake in OAT2-expressing oocytes
[3] = target: T1, Solute carrier family 22 member 7; assay: TP_TRANSPORTER: inhibition of theophylline uptake in OAT2-expressing oocytes

Row | Activity [3] | SMILES | Activity [1] | Activity [2]
1 | – | Cn1c(=O)c2[nH]cnc2n(C)c1=O.O [THEOPHYLLINE] | substrate [] | inhibitor []
2 | inhibitor [] | CC[C@H]1OC(=O)[C@H](C)[C@@H](O[C@H]2C[C@@](C)(OC)[C@@H](O)[C@H](C)O2)[C@H](C)[C@@H](O[C@@H]2O[C@H](C)C[C@H](N(C)C)[C@H]2O)[C@](C)(O)C[C@@H](C)C(=O)[C@H](C)[C@@H](O)[C@]1(C)O [ERYTHROMYCIN] | substrate [] | –
3 | inhibitor [] | CC[C@H]1OC(=O)[C@H](C)[C@@H](O[C@H]2C[C@@](C)(OC)[C@@H](O)[C@H](C)O2)[C@H](C)[C@@H](O[C@@H]2O[C@H](C)C[C@H](N(C)C)[C@H]2O)[C@](C)(OC)C[C@@H](C)C(=O)[C@H](C)[C@@H](O)[C@]1(C)O [CLARITHROMYCIN] | – | –
